Data: ChEMBL document CHEMBL5291721, “A preclinical secondary pharmacology resource illuminates target-adverse drug reaction associations of marketed drugs” (Nat Commun, 2023)

Assays:
Bile salt export pump = Bile salt export pump (Homo sapiens, UniProt O95342); assay type: functional
[1] = target: T1, Alpha-1A adrenergic receptor (Homo sapiens, UniProt P35348); assay type: functional, cell-based
T1 sequence (P35348 whole entry): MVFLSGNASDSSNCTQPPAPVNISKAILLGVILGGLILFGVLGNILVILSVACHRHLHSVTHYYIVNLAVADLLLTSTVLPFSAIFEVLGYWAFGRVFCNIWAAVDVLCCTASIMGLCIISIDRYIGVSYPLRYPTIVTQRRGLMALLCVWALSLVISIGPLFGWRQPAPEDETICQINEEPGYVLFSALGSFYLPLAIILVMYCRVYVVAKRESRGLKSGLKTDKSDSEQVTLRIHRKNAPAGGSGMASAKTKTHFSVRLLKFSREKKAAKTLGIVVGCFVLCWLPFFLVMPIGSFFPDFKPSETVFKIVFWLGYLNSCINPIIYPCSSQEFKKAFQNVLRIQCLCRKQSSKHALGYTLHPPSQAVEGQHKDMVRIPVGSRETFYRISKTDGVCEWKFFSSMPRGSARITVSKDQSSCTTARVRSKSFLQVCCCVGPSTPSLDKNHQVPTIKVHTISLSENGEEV

[2] = target: T2, Alpha-2C adrenergic receptor (Homo sapiens, UniProt P18825); assay type: functional
T2 sequence (P18825 whole entry): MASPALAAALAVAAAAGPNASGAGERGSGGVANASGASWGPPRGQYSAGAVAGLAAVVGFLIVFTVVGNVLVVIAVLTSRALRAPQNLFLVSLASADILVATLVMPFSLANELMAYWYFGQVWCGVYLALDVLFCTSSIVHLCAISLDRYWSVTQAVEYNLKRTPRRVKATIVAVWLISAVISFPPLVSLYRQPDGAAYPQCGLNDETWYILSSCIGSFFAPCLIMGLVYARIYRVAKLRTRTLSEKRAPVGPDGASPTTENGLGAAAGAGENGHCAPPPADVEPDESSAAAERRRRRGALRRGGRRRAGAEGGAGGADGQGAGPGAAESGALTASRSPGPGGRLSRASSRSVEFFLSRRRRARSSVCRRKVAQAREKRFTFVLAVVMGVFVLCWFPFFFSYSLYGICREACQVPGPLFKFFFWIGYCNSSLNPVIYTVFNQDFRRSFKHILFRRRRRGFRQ

[3] = target: Gamma-aminobutyric acid receptor subunit alpha-1 (Rattus norvegicus, UniProt P62813); assay type: functional
Gamma-aminobutyric acid receptor subunit alpha-1, sequence (P62813 whole entry): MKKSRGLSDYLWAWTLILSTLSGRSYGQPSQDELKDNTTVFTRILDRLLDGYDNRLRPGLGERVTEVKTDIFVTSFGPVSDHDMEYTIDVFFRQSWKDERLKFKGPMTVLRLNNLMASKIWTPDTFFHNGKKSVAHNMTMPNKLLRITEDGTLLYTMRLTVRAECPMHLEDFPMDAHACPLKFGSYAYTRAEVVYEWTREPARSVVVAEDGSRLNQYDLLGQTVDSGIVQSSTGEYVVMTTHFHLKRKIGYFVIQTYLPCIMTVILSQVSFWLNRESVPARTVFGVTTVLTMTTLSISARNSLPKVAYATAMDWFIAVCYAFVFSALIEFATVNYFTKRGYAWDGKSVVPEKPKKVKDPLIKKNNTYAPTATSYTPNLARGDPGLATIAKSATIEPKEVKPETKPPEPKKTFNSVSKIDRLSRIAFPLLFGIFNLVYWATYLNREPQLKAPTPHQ

Glucagon receptor = Glucagon receptor (Homo sapiens, UniProt P47871)
Glucagon receptor, sequence (P47871 whole entry): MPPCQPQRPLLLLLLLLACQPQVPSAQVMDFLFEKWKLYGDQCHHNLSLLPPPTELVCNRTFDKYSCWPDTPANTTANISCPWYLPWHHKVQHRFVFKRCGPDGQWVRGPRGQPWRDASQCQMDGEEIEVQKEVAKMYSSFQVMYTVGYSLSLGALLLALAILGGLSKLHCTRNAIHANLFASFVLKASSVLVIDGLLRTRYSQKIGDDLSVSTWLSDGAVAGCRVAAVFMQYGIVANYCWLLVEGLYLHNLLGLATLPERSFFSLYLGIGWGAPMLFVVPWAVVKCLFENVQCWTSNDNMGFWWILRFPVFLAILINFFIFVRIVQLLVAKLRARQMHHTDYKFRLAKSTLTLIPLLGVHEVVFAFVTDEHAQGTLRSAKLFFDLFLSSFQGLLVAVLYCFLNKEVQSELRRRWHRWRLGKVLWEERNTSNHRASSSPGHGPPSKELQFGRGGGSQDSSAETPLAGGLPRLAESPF

[4] = target: T3, 5-hydroxytryptamine receptor 2C (Homo sapiens, UniProt P28335)
T3 sequence (P28335 whole entry): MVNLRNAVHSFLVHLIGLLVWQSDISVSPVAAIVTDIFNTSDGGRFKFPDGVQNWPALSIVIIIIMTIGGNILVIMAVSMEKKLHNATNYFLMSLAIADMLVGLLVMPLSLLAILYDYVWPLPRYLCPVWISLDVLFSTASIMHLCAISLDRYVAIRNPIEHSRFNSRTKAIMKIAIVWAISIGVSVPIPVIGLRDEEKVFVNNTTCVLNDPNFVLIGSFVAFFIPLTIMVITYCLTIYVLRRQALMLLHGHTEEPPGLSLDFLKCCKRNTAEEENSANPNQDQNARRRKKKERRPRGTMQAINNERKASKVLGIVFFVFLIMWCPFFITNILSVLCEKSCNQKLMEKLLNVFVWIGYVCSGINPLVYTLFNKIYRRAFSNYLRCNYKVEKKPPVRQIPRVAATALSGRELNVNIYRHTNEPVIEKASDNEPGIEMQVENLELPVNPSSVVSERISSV

[5] = target: T4, 5-hydroxytryptamine receptor 3A (Homo sapiens, UniProt P46098); assay type: functional
T4 sequence (P46098 whole entry): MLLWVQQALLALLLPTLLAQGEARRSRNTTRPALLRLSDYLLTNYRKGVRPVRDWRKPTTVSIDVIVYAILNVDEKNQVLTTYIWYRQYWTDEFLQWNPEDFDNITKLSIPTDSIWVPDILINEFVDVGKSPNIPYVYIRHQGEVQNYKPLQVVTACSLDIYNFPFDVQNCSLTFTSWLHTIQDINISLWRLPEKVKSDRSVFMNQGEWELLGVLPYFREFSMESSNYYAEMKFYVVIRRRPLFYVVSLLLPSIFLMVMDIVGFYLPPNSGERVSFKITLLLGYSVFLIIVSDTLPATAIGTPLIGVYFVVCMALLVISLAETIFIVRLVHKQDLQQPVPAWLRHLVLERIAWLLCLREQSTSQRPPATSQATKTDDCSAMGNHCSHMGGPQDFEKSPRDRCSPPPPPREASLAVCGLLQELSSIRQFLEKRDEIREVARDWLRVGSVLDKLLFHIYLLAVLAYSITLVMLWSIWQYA

Melanocortin receptor 3 = Melanocortin receptor 3 (Homo sapiens, UniProt P41968)
Melanocortin receptor 3, sequence (P41968 whole entry): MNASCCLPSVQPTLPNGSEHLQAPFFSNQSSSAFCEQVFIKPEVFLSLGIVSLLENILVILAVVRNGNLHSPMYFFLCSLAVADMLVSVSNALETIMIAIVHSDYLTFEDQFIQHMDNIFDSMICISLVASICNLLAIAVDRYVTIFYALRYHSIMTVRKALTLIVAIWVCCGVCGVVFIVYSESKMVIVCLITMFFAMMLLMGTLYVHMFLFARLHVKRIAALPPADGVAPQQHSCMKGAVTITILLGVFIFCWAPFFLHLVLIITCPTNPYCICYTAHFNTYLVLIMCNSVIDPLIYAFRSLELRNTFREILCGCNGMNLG

[6] = target: Sodium-dependent noradrenaline transporter (Homo sapiens, UniProt P23975)
Sodium-dependent noradrenaline transporter, sequence (P23975 whole entry): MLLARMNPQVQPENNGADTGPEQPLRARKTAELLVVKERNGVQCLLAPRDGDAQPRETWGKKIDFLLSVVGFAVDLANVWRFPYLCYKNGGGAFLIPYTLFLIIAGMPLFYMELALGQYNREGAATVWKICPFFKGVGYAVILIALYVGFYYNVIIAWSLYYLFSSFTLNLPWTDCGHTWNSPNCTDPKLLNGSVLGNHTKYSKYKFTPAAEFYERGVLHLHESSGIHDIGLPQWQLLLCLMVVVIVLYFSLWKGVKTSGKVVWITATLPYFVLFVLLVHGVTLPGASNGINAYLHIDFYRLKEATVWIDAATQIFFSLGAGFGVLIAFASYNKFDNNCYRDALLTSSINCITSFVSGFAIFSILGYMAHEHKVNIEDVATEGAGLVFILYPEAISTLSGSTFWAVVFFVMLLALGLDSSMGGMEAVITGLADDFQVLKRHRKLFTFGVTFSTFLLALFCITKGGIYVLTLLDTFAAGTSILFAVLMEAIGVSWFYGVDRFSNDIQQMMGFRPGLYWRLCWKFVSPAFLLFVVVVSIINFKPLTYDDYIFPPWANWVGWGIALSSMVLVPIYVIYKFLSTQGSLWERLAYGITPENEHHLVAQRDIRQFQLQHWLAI

Mu-type opioid receptor = Mu-type opioid receptor (Homo sapiens, UniProt P35372)
Mu-type opioid receptor, sequence (P35372 whole entry): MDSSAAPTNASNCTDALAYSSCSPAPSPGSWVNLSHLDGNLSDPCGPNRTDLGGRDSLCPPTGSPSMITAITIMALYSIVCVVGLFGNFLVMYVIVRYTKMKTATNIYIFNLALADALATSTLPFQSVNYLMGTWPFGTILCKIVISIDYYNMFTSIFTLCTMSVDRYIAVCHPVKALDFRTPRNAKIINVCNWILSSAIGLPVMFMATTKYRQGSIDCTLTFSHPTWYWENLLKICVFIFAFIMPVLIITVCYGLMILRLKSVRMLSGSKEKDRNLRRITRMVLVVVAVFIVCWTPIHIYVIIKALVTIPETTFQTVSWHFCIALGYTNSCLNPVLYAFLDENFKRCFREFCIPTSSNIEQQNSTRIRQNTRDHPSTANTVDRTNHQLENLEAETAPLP

[7] = target: T1, Alpha-1A adrenergic receptor; assay type: functional, cell-based; remark: listed apart in the source
[8] = target: T5, Alpha-2B adrenergic receptor (Homo sapiens, UniProt P18089)
T5 sequence (P18089 whole entry): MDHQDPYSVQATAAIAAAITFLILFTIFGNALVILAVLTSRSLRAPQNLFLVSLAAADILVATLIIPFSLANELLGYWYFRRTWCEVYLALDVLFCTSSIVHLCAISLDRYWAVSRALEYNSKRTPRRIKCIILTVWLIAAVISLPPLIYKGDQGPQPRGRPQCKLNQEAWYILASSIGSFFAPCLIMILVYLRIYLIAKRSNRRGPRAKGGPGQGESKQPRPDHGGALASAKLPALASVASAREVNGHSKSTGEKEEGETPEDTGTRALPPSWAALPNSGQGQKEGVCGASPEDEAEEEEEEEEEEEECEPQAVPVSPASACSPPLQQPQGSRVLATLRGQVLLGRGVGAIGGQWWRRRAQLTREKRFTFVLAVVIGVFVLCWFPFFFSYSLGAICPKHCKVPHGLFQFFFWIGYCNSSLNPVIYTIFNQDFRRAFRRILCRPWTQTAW

[9] = target: Gamma-aminobutyric acid receptor subunit alpha-1/alpha-2/beta-2/gamma-2 (Homo sapiens, UniProt P14867+P18507+P47869+P47870); assay type: functional, cell-based
[10] = target: 5-hydroxytryptamine receptor 2A (Homo sapiens, UniProt P28223); assay type: functional, cell-based
5-hydroxytryptamine receptor 2A, sequence (P28223 whole entry): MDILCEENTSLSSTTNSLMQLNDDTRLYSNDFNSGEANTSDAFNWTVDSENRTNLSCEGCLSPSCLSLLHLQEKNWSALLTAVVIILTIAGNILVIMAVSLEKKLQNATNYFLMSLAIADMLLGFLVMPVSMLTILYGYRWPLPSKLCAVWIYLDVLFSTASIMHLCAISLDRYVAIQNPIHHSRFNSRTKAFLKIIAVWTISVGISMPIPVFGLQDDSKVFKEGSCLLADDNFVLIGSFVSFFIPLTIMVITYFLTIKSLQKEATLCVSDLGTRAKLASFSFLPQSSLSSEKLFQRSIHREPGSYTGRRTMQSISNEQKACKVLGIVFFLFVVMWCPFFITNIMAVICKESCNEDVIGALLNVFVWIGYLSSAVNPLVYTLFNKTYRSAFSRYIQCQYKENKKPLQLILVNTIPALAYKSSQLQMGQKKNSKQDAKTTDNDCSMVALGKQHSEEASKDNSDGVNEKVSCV
Note: assay procedure not described here.

Bile salt export pump, sequence (O95342 whole entry): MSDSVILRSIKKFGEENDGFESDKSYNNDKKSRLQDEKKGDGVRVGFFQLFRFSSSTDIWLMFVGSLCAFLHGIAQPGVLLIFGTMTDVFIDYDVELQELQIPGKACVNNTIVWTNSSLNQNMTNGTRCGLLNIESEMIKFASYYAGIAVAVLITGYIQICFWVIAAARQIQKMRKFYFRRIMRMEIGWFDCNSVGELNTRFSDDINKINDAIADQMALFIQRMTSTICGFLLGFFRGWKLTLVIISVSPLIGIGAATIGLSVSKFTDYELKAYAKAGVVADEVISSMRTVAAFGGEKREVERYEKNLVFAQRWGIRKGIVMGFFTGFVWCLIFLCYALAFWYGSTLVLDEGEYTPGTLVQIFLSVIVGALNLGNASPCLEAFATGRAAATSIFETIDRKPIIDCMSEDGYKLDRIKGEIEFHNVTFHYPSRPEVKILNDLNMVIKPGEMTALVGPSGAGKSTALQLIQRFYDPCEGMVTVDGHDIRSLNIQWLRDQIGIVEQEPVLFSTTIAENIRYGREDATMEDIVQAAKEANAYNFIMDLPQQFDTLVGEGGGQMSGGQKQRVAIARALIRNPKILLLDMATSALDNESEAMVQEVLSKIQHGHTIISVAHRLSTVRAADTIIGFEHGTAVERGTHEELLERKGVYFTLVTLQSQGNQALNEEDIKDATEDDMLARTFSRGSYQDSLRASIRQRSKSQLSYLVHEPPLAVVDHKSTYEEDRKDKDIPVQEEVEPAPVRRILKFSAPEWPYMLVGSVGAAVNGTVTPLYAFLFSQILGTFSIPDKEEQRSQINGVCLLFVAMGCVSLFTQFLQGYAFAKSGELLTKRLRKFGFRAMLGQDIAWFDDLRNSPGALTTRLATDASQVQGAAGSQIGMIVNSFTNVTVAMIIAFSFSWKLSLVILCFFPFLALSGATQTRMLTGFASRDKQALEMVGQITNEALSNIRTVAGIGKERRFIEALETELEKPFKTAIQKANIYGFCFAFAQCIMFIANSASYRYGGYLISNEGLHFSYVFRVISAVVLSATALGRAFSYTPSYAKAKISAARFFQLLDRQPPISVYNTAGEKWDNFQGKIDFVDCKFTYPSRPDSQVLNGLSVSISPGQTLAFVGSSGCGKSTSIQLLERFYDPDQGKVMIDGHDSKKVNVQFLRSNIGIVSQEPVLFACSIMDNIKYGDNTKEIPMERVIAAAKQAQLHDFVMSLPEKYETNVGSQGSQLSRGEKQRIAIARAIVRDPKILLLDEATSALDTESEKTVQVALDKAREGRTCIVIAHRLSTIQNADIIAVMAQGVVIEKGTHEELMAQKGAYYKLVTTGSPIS

Structure (SMILES): CC[C@@H](CO)NC(=O)[C@@H]1C=C2c3cccc4c3c(cn4C)C[C@H]2N(C)C1 [METHYSERGIDE]
- AC50 (Bile salt export pump): 180 µM
- AC50 [1]: 0.88 µM
- AC50 [2]: 3.5 µM
- AC50 [3]: > 10 µM
- AC50 (Glucagon receptor): > 30 µM
- AC50 [4]: 0.0082 µM
- AC50 [5]: > 30 µM
- AC50 (Melanocortin receptor 3): > 30 µM
- AC50 [6]: > 30 µM
- AC50 (Mu-type opioid receptor): > 30 µM

Structure (SMILES): CC(C)[C@H](N)C(=O)OCCOCn1cnc2c(=O)[nH]c(N)nc21 [VALACYCLOVIR]
- AC50 (Bile salt export pump): > 300 µM
- AC50 [1]: > 30 µM
- AC50 [2]: > 10 µM
- AC50 [3]: > 10 µM
- AC50 (Glucagon receptor): > 30 µM
- AC50 [4]: > 30 µM
- AC50 [5]: > 30 µM
- AC50 (Melanocortin receptor 3): > 30 µM
- AC50 [6]: > 10 µM
- AC50 (Mu-type opioid receptor): > 30 µM

Structure (SMILES): O=C(O)Cc1ccccc1Nc1c(Cl)cccc1Cl [DICLOFENAC]
- AC50 (Bile salt export pump): > 300 µM
- AC50 [1]: > 30 µM
- AC50 [7]: > 3 µM
- AC50 [2]: > 10 µM
- AC50 [3]: > 10 µM
- AC50 (Glucagon receptor): > 30 µM
- AC50 [4]: > 10 µM
- AC50 [5]: > 10 µM
- AC50 (Melanocortin receptor 3): > 30 µM
- AC50 [6]: > 30 µM
- AC50 (Mu-type opioid receptor): > 30 µM

Structure (SMILES): O=C1Cc2cc(CCN3CCN(c4nsc5ccccc45)CC3)c(Cl)cc2N1 [ZIPRASIDONE]
- AC50 (Bile salt export pump): 18 µM
- AC50 [1]: > 30 µM
- AC50 [7]: 0.0179 µM
- AC50 [3]: > 10 µM
- AC50 (Glucagon receptor): > 30 µM
- AC50 [5]: > 10 µM
- AC50 (Melanocortin receptor 3): > 30 µM
- AC50 [6]: 0.89 µM
- AC50 (Mu-type opioid receptor): > 30 µM

Structure (SMILES): CN(CCOc1ccc(CC2SC(=O)NC2=O)cc1)c1ccccn1 (stereo not drawn) [ROSIGLITAZONE]
- AC50 (Bile salt export pump): 1 µM
- AC50 [1]: > 30 µM
- AC50 [2]: > 30 µM
- AC50 [3]: > 30 µM
- AC50 (Glucagon receptor): > 30 µM
- AC50 [4]: > 30 µM
- AC50 [5]: > 30 µM
- AC50 (Melanocortin receptor 3): 20.8 µM
- AC50 [6]: > 30 µM
- AC50 (Mu-type opioid receptor): > 10 µM

Structure (SMILES): Cc1onc(-c2c(F)cccc2Cl)c1C(=O)N[C@@H]1C(=O)N2[C@@H]1SC(C)(C)[C@@H]2C(=O)O [FLOXACILLIN]
- AC50 (Bile salt export pump): 50 µM
- AC50 [1]: > 30 µM
- AC50 [8]: > 30 µM
- AC50 [2]: > 30 µM
- AC50 [9]: > 30 µM
- AC50 [3]: > 30 µM
- AC50 [10]: > 30 µM
- AC50 [4]: > 30 µM
- AC50 [5]: > 30 µM
- AC50 (Melanocortin receptor 3): > 30 µM
- AC50 [6]: > 30 µM
- AC50 (Mu-type opioid receptor): > 30 µM

Structure (SMILES): O=C(O)Cc1ccccc1Oc1ccc(Cl)cc1Cl [FENCLOFENAC]
- AC50 [1]: > 30 µM
- AC50 [7]: > 30 µM
- AC50 [8]: > 10 µM
- AC50 [2]: > 10 µM
- AC50 [3]: > 10 µM
- AC50 (Glucagon receptor): > 30 µM
- AC50 [4]: > 30 µM
- AC50 [5]: > 30 µM
- AC50 (Melanocortin receptor 3): > 30 µM
- AC50 [6]: > 10 µM
- AC50 (Mu-type opioid receptor): > 30 µM
